Results on three compounds are retold here after patent publication US20260207798A1, “CYCLIC PEPTIDES AS PET IMAGING AGENTS OF GRANZYME B” (priority 2022, published 2026).

Numbered stars: 1 amine (or outer) side, 2 acyl side, 3 side chain; on linkers, the order of the positions; unused ones are H or OH. Bridge positions count the residues as written; N and C are the ends. Peptide text beside a SMILES is read from it. I, II: the chains in the order shown. * marks the point of attachment. CO(CH2)2(OCH2CH2)17CO = O=C(CCOCCOCCOCCOCCOCCOCCOCCOCCOCCOCCOCCOCCOCCOCCOCCOCCOCCC(=O)[*:2])[*:1]; X5 = O=C(CCOCCOCCOCCOCCOCCOCCOCCOCCOCCOCCOCCC(=O)[*:2])[*:1]; Propionyl = CCC(=O)* A value given as a limit tells only on which side of the number the result lay.

The target in this assay is human Granzyme B (hGranzyme B) (Homo sapiens, UniProt P10144). The assay is described as follows: Surface plasmon resonance (SPR) binding kinetics to hGranzyme B. The settings on record: 25° C., 1:1 binding model, KD=kd/ka; read-out: Granzyme B SPR Kd. The method, then: The kinetics of test peptide binding to human Granzyme B (hGranzyme B) was determined by SPR. All experiments were performed at 25° C. using the Biacore 8k+ instrument (Cytiva, Marlborough, MA). The Biacore 8k+ Insight Evaluation Software Version 3.0 was used to fit the data with a 1:1 binding model to determine the association rate constant ka (M^−1s^−1, where “M” ~equals molar and “s” ~equals seconds) and the dissociation rate constant kd (s^−1). These rate constants were used to calculate the equilibrium dissociation constant. KD (M)=kd/ka.
To measure the binding kinetics of peptides of interest, surfaces were prepared by a capture method to a Series S Streptavidin (SA) chip using a 1×HBS-EP+ running buffer (Cytiva). hGranzyme B was diluted to 10 μg/mL in IX HBS-EP+ and flowed over spot 2 of each flow cell on the chip at a flow rate of 10 ul/min for 20 s to achieve a level of capture of ~1100 RU. An unmodified spot 1 of each flow cell was used as a matrix binding control or reference surface. Binding kinetics were measured using single cycle kinetics at 25° C. by injecting 5 concentrations with 3-fold serial dilutions of test peptides from 0.01 μM to 1 μM. Compound dilutions were performed manually in a running buffer containing 1×HBS-EP+(Cytiva), and a final concentration of 2% DMSO. The interaction analyses over hGranzyme B, were performed using a 120 s association time and a 900 s dissociation time. All experiments were conducted at a flow rate of 50 μL/min with a data collection rate of 10 Hz.
Peptide dilution series included 2 zero concentration points (no compound) which were averaged and subtracted from the peptide concentration injection as DMSO control responses. Binding data acquired from the reference surface (matrix binding control) were subtracted from the binding data for hGranzyme B surface on the chip to determine specific binding. Next, the association phase data were solvent corrected to account for any signal fluctuation throughout the experiment due to subtle DMSO concentration differences. Corrected response data were analyzed using the Biacore 8k+ Evaluation Software Version 3.0 according to the manufacturer. SPR data for representative compounds of the disclosure are found in Table 8.
One may read the Kd as the concentration at which binding is half-saturated. For the compound `CCC(=O)NCCCC[C@H](NC(=O)CNC(=O)CNC(=O)[C@@H]1CSCC(=O)N[C@@H](Cc2ccccc2)C(=O)N[C@@H](CC(N)=O)C(=O)N[C@@H](Cc2ccccc2)C(=O)N[C@@H](CCC(=O)O)C(=O)N[C@@H](CC(=O)O)C(=O)N[C@@H](CCC(N)=O)C(=O)N[C@@H](CO)C(=O)N2CCC[C@H]2C(=O)N[C@@H](CC(=O)O)C(=O)N[C@@H]([C@@H](C)O)C(=O)N[C@@H](Cc2c[nH]c3ccccc23)C(=O)N[C@@H](CCC(N)=O)C(=O)N2CCC[C@H]2C(=O)N1)C(N)=O` [Compound 15a, *F.N.F.E.D.Q.S.P.D.T.W.Q.P.*C.G.G.K(Prop).NH2] ({CH2CO}-FNFEDQSPDTWQPCGGK(Propionyl)-NH2; thioether N-14), the Kd turned out to be 3.7 nM.

On to `C[C@@H]1NC(=O)[C@H](CO)NC(=O)[C@H](CCC(N)=O)NC(=O)[C@H](CC(=O)O)NC(=O)[C@H](CCC(=O)O)NC(=O)[C@H](Cc2ccccc2)NC(=O)[C@H](CC(N)=O)NC(=O)[C@H](Cc2ccccc2)NC(=O)CSC[C@@H](C(=O)NCC(=O)NCC(=O)N[C@@H](CCCCNC(=O)CCOCCOCCOCCOCCOCCOCCOCCOCCOCCOCCOCCC(=O)NCCCC[C@H](NC(=O)CNC(=O)CNC(=O)[C@@H]2CSCC(=O)N[C@@H](Cc3ccccc3)C(=O)N[C@@H](CC(N)=O)C(=O)N[C@@H](Cc3ccccc3)C(=O)N[C@@H](CCC(=O)O)C(=O)N[C@@H](CC(=O)O)C(=O)N[C@@H](CCC(N)=O)C(=O)N[C@@H](CO)C(=O)N[C@@H](C)C(=O)N[C@@H](CC(=O)O)C(=O)N[C@@H]([C@@H](C)O)C(=O)N[C@@H](Cc3c[nH]c4ccccc34)C(=O)N[C@@H](CCC(N)=O)C(=O)N3CCC[C@H]3C(=O)N2)C(N)=O)C(N)=O)NC(=O)[C@@H]2CCCN2C(=O)[C@H](CCC(N)=O)NC(=O)[C@H](Cc2c[nH]c3ccccc23)NC(=O)[C@H]([C@@H](C)O)NC(=O)[C@H](CC(=O)O)NC1=O` [Compound 17a, (*F.N.F.E.D.Q.S.A.D.T.W.Q.P.*C.G.G.K.NH2)-PEG11-(*F.N.F.E.D.Q.S.A.D.T.W.Q.P.*C.G.G.K.NH2)] (I: {CH2CO}-FNFEDQSADTWQPCGGK-NH2 / II: {CH2CO}-FNFEDQSADTWQPCGGK-NH2; linker I:17-II:17 via X5 (inferred); thioether I:N-I:14, II:N-II:14 (inferred)), for which the Kd was below 0.3 nM.

As to `C[C@@H]1NC(=O)[C@H](CO)NC(=O)[C@H](CCC(N)=O)NC(=O)[C@H](CC(=O)O)NC(=O)[C@H](CCC(=O)O)NC(=O)[C@H](Cc2ccccc2)NC(=O)[C@H](CC(N)=O)NC(=O)[C@H](Cc2ccccc2)NC(=O)CSC[C@@H](C(=O)NCC(=O)NCC(=O)N[C@@H](CCCCNC(=O)CCOCCOCCOCCOCCOCCOCCOCCOCCOCCOCCOCCOCCOCCOCCOCCOCCOCCC(=O)NCCCC[C@H](NC(=O)CNC(=O)CNC(=O)[C@@H]2CSCC(=O)N[C@@H](Cc3ccccc3)C(=O)N[C@@H](CC(N)=O)C(=O)N[C@@H](Cc3ccccc3)C(=O)N[C@@H](CCC(=O)O)C(=O)N[C@@H](CC(=O)O)C(=O)N[C@@H](CCC(N)=O)C(=O)N[C@@H](CO)C(=O)N[C@@H](C)C(=O)N[C@@H](CC(=O)O)C(=O)N[C@@H]([C@@H](C)O)C(=O)N[C@@H](Cc3c[nH]c4ccccc34)C(=O)N[C@@H](CCC(N)=O)C(=O)N3CCC[C@H]3C(=O)N2)C(N)=O)C(N)=O)NC(=O)[C@@H]2CCCN2C(=O)[C@H](CCC(N)=O)NC(=O)[C@H](Cc2c[nH]c3ccccc23)NC(=O)[C@H]([C@@H](C)O)NC(=O)[C@H](CC(=O)O)NC1=O` [Compound 18a, (*F.N.F.E.D.Q.S.A.D.T.W.Q.P.*C.G.G.K.NH2)-PEG17-(F.N.F.E.D.Q.S.A.D.T.W.Q.P.C.G.G.K.NH2)] (I: {CH2CO}-FNFEDQSADTWQPCGGK-NH2 / II: {CH2CO}-FNFEDQSADTWQPCGGK-NH2; linker I:17-II:17 via CO(CH2)2(OCH2CH2)17CO (inferred); thioether I:N-I:14, II:N-II:14 (inferred)), the Kd was below 0.3 nM.
